Source: patent publication EP1770089A1, “Pyranodibenzofuran derivatives with antifungal and antibacterial activity” (priority 2005, dated 2007)
Values after ≈ are worked out from the molar mass of the structure shown. Where two headings read alike, the source gives them in different places.

Legend:
Type in all cases: cell-based
[1] = test system: L1210 cells; test: Cytotoxicity, MTA (Microculture Tetrazolium Assay) test; details: cytotoxicity on L1210 cells
Description: The cytotoxicity of compounds 5, 9, and 10-21 was determined in L1210 cells using the MTA (Microculture Tetrazolium Assay) test.

[2] = test system: Mycobacterium tuberculosis H37Rv; test: Mycobacterial growth inhibition in liquid culture, CFU plating (MIC99); details: for MIC99: 504 h
[3] = test system: Mycobacterium smegmatis mc^2155; test: Mycobacterial growth inhibition in liquid culture (MIC99); details: two-day's growth at 37°C, 99% decrease vs DMSO control; for MIC99: Mycolicibacterium smegmatis, MC2155|MC^2155, 48 h
[4] = test system: Candida albicans; test: In vitro activity (MIC99) against Candida albicans; details: > 99 % inhibition of growth; for MIC99: Candida albicans, read-out: MIC99 C. albicans
Description: The antifungal activity of compounds 5, 9, and 11-22 against Candida albicans was analyzed by the measure of the MIC99 concentration (see Table 1). Table 1. In Vitro Activity against Candida albicans of pyranodibenzofuran derivatives

[5] = test system: M. microti (MYC-942272); test: Growth inhibition in liquid culture, CFU plating (MIC99)
[6] = test system: M. bovis BCG (Pasteur); test: microbe, parasite or virus in culture; details: Mycobacterium tuberculosis variant bovis BCG
[7] = test system: M. tuberculosis Beijing (GC1237); test: Growth inhibition in liquid culture, CFU plating (MIC99); details: Mycobacterium tuberculosis
[8] = test system: M. tuberculosis H37Ra; test: as above; details: Mycobacterium tuberculosis
[9] = test system: Pseudomonas aeruginosa; test: Growth inhibition in liquid medium, CFU plating (MIC99); details: Gram-negative
Description: (§1) To further assess its specificity, effect of compounds 9 and 16 was also assessed in vitro growth in liquid medium on a whole range of bacteria (Corynebacterium jeikeium, Escherichia coli, Enterococcus faecalis, Klebsiella oxytoca, Nocardia asteroides, Staphylococcus aureus, Pseudomonas aeruginosa and Streptomyces). Compounds were solubilized in dimethylsulfoxide (DMSO) and 100 µl of the appropriate dilution were added to a 5 ml culture with predetermined bacterium inoculum. Quantification of the bacteria was carried out by plating on appropriate agar serial 5-fold dilutions in medium, and colony forming units (CFUs) were ascertained after 24 to 48 hours according to the strains. Table 5. Antibacterial activity of compounds 9 and 16 on other bacteria

[10] = test system: Enterococcus faecalis; test: as above; details: Gram-positive
Description: as §1

[11] = test system: Nocardia asteroides; test: as above; details: Actinomycetes
Description: as §1

[12] = test system: Escherichia coli; test: as above; details: Gram-negative
Description: as §1

[13] = test system: Corynebacterium jeikeium; test: as above; details: Actinomycetes
Description: as §1

[14] = test system: VERO cells; test: Cytotoxicity, MTT test; details: for IC50: cytotoxicity on VERO cells, MTT, 24 hours
Description: (§2) The cytotoxicity of compounds 9 and 16 was further assessed in various mammalian cell lines using the MTT test. RAW and A549 cell lines were maintained in RPMI 1640 medium without L-GLU supplemented with 10% Fetal calf serum (FCS), penicillin-streptomycin solution 1 % at 37 °C in air with 5 % CO2. VERO cell lines were maintained in D-MEM medium without L-GLU supplemented with 10% Fetal calf Serum (FCS), penicillin-streptomycin solution 1 % at 37 °C in air with 5 % CO2. Proliferating cells were seeded for 96-well microtitration plates at a density of 5. 10^5 cells/mL which were further incubated for 24 h at 37°C under 5 % CO2 in air before each assay. Various concentrations of solutions of 9 and 16 (10 µl/well) in 1.25 % dimethylsulfoxide (DMSO)) were added and then incubated for 24 hours under the above conditions. At the end of incubation, 20 µl of dimethylthiazolyl diphenyl tetrazolium bromide solution (MTT) (7.5 mg/ml) was then added into each well and further incubated for 4 h at 37°C to allow the formation of formazan. The crystals of formazan were then dissolved with 100 µl of an acidic solution (Sodium dodecyl sulfate (SDS) 10 %, HCl 10 mM). The optical density of each well was measured at 595 nm using a Multiwell plate reader. The values given are the average means of six replicates. The 50 % inhibition concentration was determined by curve fitting.

[15] = test system: Macrophages; test: Cytotoxicity, MTT test; details: cytotoxicity on macrophages
Description: as §2

[16] = Mycobacterium tuberculosis, H37RV, H37Rv, three weeks growth in 7H9, CFU on 7H11, NI = no inhibition at 1 mg/mL, read-out: MIC99 on M. tuberculosis
[17] = read-out: MIC99 on M. smegmatis, mc2155
[18] = mc2155, read-out: MIC99 on M. smegmatis
[19] = H37Rv, three weeks growth in 7H9, CFU on 7H11, NI = no inhibition at 1 mg/mL
[20] = Mycobacterium tuberculosis, H37RV, M. tuberculosis H37Rv, three week growth in 7H9/OADC, read-out: MIC99

CC1(C)Oc2cc3c(cc2[C@H](O)[C@@H]1O)oc1ccccc13 (racemic) [Compound 11, (±)cis-3,4-dihydro-3,4-dihydroxy-2,2-dimethyl-2H-benzofuro[2,3-g]-[1]-benzopyran]
IC50 ([1]; Mus musculus, read-out: IC50): 13 µg/mL (≈ 45.7 µM)
MIC99 [2, 16]: > 1000 µg/mL
MIC99 [3, 17]: 30 to 60 µg/mL (≈ 106 to 211 µM)
MIC99 [3, 18]: 60 µg/mL (≈ 211 µM)
MIC99 [4]: 27 µg/mL (≈ 95 µM)

CC1(C)Oc2ccc3oc4ccccc4c3c2[C@@H](O)[C@H]1O (racemic) [Compound 12, (±)cis-1,2-dihydro-1,2-dihydroxy-3,3-dimethyl-3H-benzofuro[3,2-f][1]benzopyran]
IC50 ([1]; Mus musculus, read-out: IC50): 1.3 µg/mL (≈ 4.57 µM)
MIC99 [2, 16]: 60 µg/mL (≈ 211 µM)
MIC99 [3, 17]: 30 to 60 µg/mL (≈ 106 to 211 µM)
MIC99 [3, 18]: 30 µg/mL (≈ 106 µM)
MIC99 [4]: > 160 µg/mL

CC1(C)Oc2ccc3oc4ccccc4c3c2C(=O)C1O (racemic) [Compound 13, (±)2,3-dihydro-2-hydroxy-3,3-dimethyl-1H-benzofuro[3,2-f][1]benzopyran-1-one]
IC50 ([1]; Mus musculus, read-out: IC50): 5.04 µg/mL (≈ 17.9 µM)
MIC99 [4]: > 330 µg/mL

CC(=O)CC1(O)C(=O)c2c(ccc3oc4ccccc4c23)OC1(C)C (racemic) [Compound 14, (±)2,3-dihydro-2-hydroxy-3,3-dimethyl-2-(2-oxopropyl)-1Hbenzofuro[3,2f][1]benzopyran-1-one]
IC50 [1]: 18.981 µg/mL (≈ 56.1 µM)
MIC99 C. albicans [4]: 150 µg/mL (≈ 443 µM)

CC1(C)Oc2ccc3oc4ccccc4c3c2[C@@H](O)[C@@H]1O (racemic) [Compound 15, (±)trans-1,2,-dihydro-1,2-dihydroxy-3,3-dimethyl-3H-benzofuro[3,2-f][1]benzopyran]
IC50 [1]: 12.3405 µg/mL (≈ 43.4 µM)
MIC99 on M. tuberculosis [2, 19]: NI (No inhibition observed at the highest concentration tested (1 mg/mL))
MIC99 on M. smegmatis ([3]; mc2155): 30 µg/mL (≈ 106 µM)
MIC99 C. albicans [4]: > 300 µg/mL

CC(=O)O[C@H]1c2cc3oc4ccccc4c3cc2OC(C)(C)[C@H]1OC(C)=O (racemic) [Compound 17, (±)cis-3,4-diacetoxy-3,4-dihydro-2,2-dimethyl-2H-benzofuro[2,3-g]-[1]-benzopyran]
IC50 ([1]; Mus musculus, read-out: IC50): 8.52 µg/mL (≈ 23.1 µM)
MIC99 [4]: > 400 µg/mL

CC(=O)O[C@@H]1c2c(ccc3oc4ccccc4c23)OC(C)(C)[C@@H]1OC(C)=O (racemic) [Compound 18, (±)cis-1,2-diacetoxy-1,2-dihydro-3,3-dimethyl-3H-benzofuro[3,2-f][1]benzopyran]
IC50 ([1]; Mus musculus, read-out: IC50): 9.35 µg/mL (≈ 25.4 µM)
MIC99 [4]: > 300 µg/mL

CC(=O)O[C@@H]1c2c(ccc3oc4ccccc4c23)OC(C)(C)[C@H]1OC(C)=O (racemic) [Compound 19, (±)trans-1,2,-diacetoxy-1,2-dihydro-3,3-dimethyl-3H-benzofuro[3,2-f][1]benzopyran]
IC50 [1]: 5.5005 µg/mL (≈ 14.9 µM)
MIC99 on M. tuberculosis [2, 19]: NI (No inhibition observed at the highest concentration tested (1 mg/mL))
MIC99 on M. smegmatis ([3]; mc2155): 180 µg/mL (≈ 489 µM)
MIC99 C. albicans [4]: > 300 µg/mL

CC(=O)OC1C(=O)c2c(ccc3oc4ccccc4c23)OC1(C)C (racemic) [Compound 20, (±)2-acetoxy-2,3-dihydro-2-hydro-3,3-dimethyl-1H-benzofuro[3,2-f][1]benzopyran-1-one]
IC50 [1]: 28.5 µg/mL (≈ 87.9 µM)
MIC99 C. albicans [4]: > 280 µg/mL

C#CC(C)(C)Oc1ccc2oc3ccccc3c2c1 [Compound 5, 2-(1,1-dimethyl-propargyloxy)-dibenzofuran]
MIC99 [5]: > 500 µg/mL
MIC99 [6]: > 500 µg/mL
MIC99 ([7]; read-out: MIC99): > 500 µg/mL
MIC99 [2, 16]: > 1000 µg/mL
MIC99 [2, 20]: > 500 µg/mL
MIC99 [3, 17]: 12 µg/mL (≈ 47.9 µM)
MIC99 [8]: > 500 µg/mL

C=C1Oc2ccc3oc4ccccc4c3c2C1(C)C [Compound 10, 1,2-dihydro-1,1-dimethyl-2-methylenebenzofuro[5,4-b]benzofuran]
IC50 ([1]; Mus musculus, read-out: IC50): 3.71 µg/mL (≈ 14.8 µM)
MIC99 [4]: > 300 µg/mL

CC1(C)CCc2c(ccc3oc4ccccc4c23)O1 [Compound 16, 1,2-dihydro-3,3-dimethyl-3H-benzofuro[3,2-f][1]benzopyran]
MIC99 [6]: 10 µg/mL (≈ 39.6 µM)
MIC99 [7]: < 5 µg/mL
MIC99 [9]: > 500 µg/mL
MIC99 [10]: > 500 µg/mL
MIC99 [11]: 15 µg/mL (≈ 59.4 µM)
MIC99 [12]: > 500 µg/mL
MIC99 [13]: > 150 µg/mL
MIC99 [2, 16]: 5 µg/mL (≈ 19.8 µM)
MIC99 ([2]; Mycobacterium tuberculosis, H37RV, M. tuberculosis H37Rv, three week growth in 7H9/OADC): < 5 µg/mL
MIC ([2]; Mycobacterium tuberculosis, H37RV, summary statement, read-out: MIC measured on M. tuberculosis): < 6.25 µg/mL
MIC99 [3, 17]: 5 µg/mL (≈ 19.8 µM)
MIC99 [3, 18]: 1 µg/mL (≈ 3.96 µM)
IC50 ([14]; Chlorocebus sabaeus, Vero, 24 h, read-out: IC50): > 50 µg/mL
IC50 [14]: 100 µg/mL (≈ 396 µM)
Selectivity Index ([14]; summary statement, cell type not specified): above 10
IC50 ([15]; Macrophage, 24 h, read-out: IC50): > 50 µg/mL
IC50 ([15]; 24 hours): > 100 µg/mL
MIC99 [8]: 10 µg/mL (≈ 39.6 µM)

NNC(=O)c1ccncc1 [INH, isoniazid, reference compound]
IC50 ([1]; Mus musculus, read-out: IC50): 14 µg/mL (≈ 102 µM)
MIC99 [5]: 0.1 µg/mL (≈ 0.729 µM)
MIC99 [6]: 1 µg/mL (≈ 7.29 µM)
MIC99 ([7]; read-out: MIC99): 0.1 µg/mL (≈ 0.729 µM)
MIC99 [2, 16]: 0.1 µg/mL (≈ 0.729 µM)
MIC99 [2, 20]: 0.1 µg/mL (≈ 0.729 µM)
MIC99 [3, 18]: 13 µg/mL (≈ 94.8 µM)
MIC99 [8]: 1 µg/mL (≈ 7.29 µM)

Clc1ccc(COC(Cn2ccnc2)c2ccc(Cl)cc2Cl)c(Cl)c1 (stereo not drawn) [Miconazole, reference compound]
MIC99 [4]: 0.25 to 60 µg/mL (≈ 0.601 to 144 µM)

(±)cis-4H-3a,4,12b-trihydro-2,2-dimethyl-1,3-dioxolo[4,5-h]benzofuro[3,2-g]benzopyran [Compound 21]
IC50 [1]: 12.8535 µg/mL
MIC99 C. albicans [4]: > 400 µg/mL
